Results from EP1956033A1, “Acrylimides with initiator characteristics” (Mondi Release Liner Austria GmbH, priority 2007, dated 2008).

Experiments:
[1] = Test under self-initiation: irradiation and polymerisation in bulk without additional initiator; parameters: Rate: unit not given here; conditions: for DBC / Rate / tmax: 100 wt-% compound, in bulk, no additional initiator; for Polymerisationsraten in Substanz gegenüber Verwendung als Initiatoren für HDDA (Faktor): ratio of rate in bulk to rate of the same compound as initiator in HDDA
[2] = Test for initiator properties: photopolymerisation of HDDA with the acrylimide added as initiator; conditions: approx. 6 mol-% imido groups in HDDA, 250-450 nm, 900 mW/cm^2; for DBC: double bond conversion from heat of polymerisation; for Rate: mean polymerisation rate of the mixture, means of multiple determinations; for tmax: time to exotherm maximum (maximum polymerisation rate)
From the text: Dabei wurden die üblichen Polymerisationsparameter aufgezeichnet, und die Ergebnisse sind (als Mittelwerte von […]) in […] gibt die "Rate" die […]) des jeweiligen […] an. "DBC" ("double bond conversion"; in %) […] aus der Polymerisationswä[…] an polymerisierten Doppelbindungen, bezogen auf die […], und "tmax" ist die bis zum Erreichen des […]. bis zur […]) erforderliche Zeit (in s). Zusätzlich sind der Gehalt der jeweiligen Verbindung in HDDA in Gew.-% und in Mol-% sowie der Gehalt an Acrylimidogruppen in Mol-% angegeben. Tabelle 1

[3] = Preliminary tests of the inventors on di(meth)acrylated carboxamides (reactivity / initiator properties)
From the text: Da sich in der Literatur keine Hinweise auf derartige Eigenschaften von Di(meth)-acrylamiden fanden, zielten Vorversuche der Erfinder auf Triacylamide ab, in denen zwei der Acylgruppen (Meth)acrylgruppen waren.

Compound | DBC [1] | Rate [1] | tmax [1] | DBC [2] | Rate [2] | tmax [2] | Polymerisationsraten in Substanz gegenüber Verwendung als Initiatoren für HDDA (Faktor) [1] | Reaktivität / Initiatoreigenschaften [3]
C=CC(=O)N(CCC)C(=O)C=C [[12], N-Propylacrylimid] | 95,2% | 196,3 | 20,4 s | 82,6% | 29,8 10^3 mol/l.s. | 159,6 s | – | –
C=CC(=O)N(CCCCCC)C(=O)C=C [[13], N-Hexylacrylimid] | 92,7% | 170,0 | 21,3 s | 80,2% | 28,5 10^3 mol/l.s. | 159,9 s | – | –
C=CC(=O)N(CC(CC)CCCC)C(=O)C=C (stereo not drawn) [[14], N-2-Ethylhexylacrylimid] | 89,1% | 164,8 | 21,8 s | 80,9% | 28,3 10^3 mol/l.s. | 157,1 s | – | –
C=CC(=O)N(CCN(CC)CC)C(=O)C=C [[15], N-(2-Diethylaminoethyl)acrylimid] | 90,3% | 167,4 | 20,9 s | 80,2% | 27,7 10^3 mol/l.s. | 160,8 s | – | –
C=CC(=O)N(CCCCCCN(C(=O)C=C)C(=O)C=C)C(=O)C=C [[16], N,N'-(1,6-Hexylen)bisacrylimid] | – | – | – | 75,7% | 20,6 10^3 mol/l.s. | 162,4 s | – | –
C=CC(=O)N(CCC(C)(C)CC(C)CN(C(=O)C=C)C(=O)C=C)C(=O)C=C (stereo not drawn) [[17], N,N'-(2,4,4-Trimethyl-1,6-hexylen)bisacrylimid] | 78,9% | 42,6 | 19,5 s | 75,3% | 20,2 10^3 mol/l.s. | 165,0 s | ~2 | –
C=CC(=O)N(CC1CCCC(CN(C(=O)C=C)C(=O)C=C)C1)C(=O)C=C (stereo not drawn) [[18], N,N'-(1,3-Cyclohexylendimethylen)bisacrylimid] | – | – | – | 73,6% | 19,1 10^3 mol/l.s. | 167,5 s | – | –
C=CC(=O)N(CCCCCCCCCCCCN(C(=O)C=C)C(=O)C=C)C(=O)C=C [[19], N,N'-(1,12-Dodecylen)bisacrylimid] | – | – | – | 76,8% | 20,9 10^3 mol/l.s. | 163,9 s | – | –
C=CC(=O)N(CCOCCOCCN(C(=O)C=C)C(=O)C=C)C(=O)C=C [[20], N,N'-(3,6-Dioxa-1,8-octylen)bisacrylimid] | – | – | – | 74,8% | 21,2 10^3 mol/l.s. | 171,2 s | – | –
C=CC(=O)N(CCC[Si](C)(C)O[Si](C)(C)CCCN(C(=O)C=C)C(=O)C=C)C(=O)C=C [[21], N,N'-(4,6-Disila-5-oxa-4,4,6,6-tetramethyl-1,9-nonylen)bisacrylimid] | 80,2% | – | 19,2 s | 78,2% | 23,4 10^3 mol/l.s. | 153,0 s | ~2 | –
C=CC(=O)N(CCN(CCN(C(=O)C=C)C(=O)C=C)CCN(C(=O)C=C)C(=O)C=C)C(=O)C=C [[22], Tris(2-acrylimidoethyl)amin] | 73,5% | 38,1 | 16,8 s | 72,4% | 17,8 10^3 mol/l.s. | 182,2 s | ~2 | –
Diacrylpropionamid | – | – | – | – | – | – | – | mäßig reaktive Monomere ohne Initiatoreigenschaften
